Data from patent US10457619B2, “Resorcinol derivatives for cosmetic use thereof” (L'OREAL, priority 2015, dated 2019).

Test system: pigmented reconstructed epidermides (keratinocytes and melanocytes of European origin, Episkin)
Assay: Depigmenting activity on pigmented reconstructed epidermis (melanin quantified by image analysis, Fontana-Masson stain)
Type: cell-based, human
Settings: compounds at 30 μM in DMSO, added to culture medium
Experimental: The aim of this test is to evaluate the modulation of melanogenesis in pigmented reconstructed epidermides after “systemic” application of the products. • The compounds are tested at 30 μM in DMSO. • The pigmented epidermides are reconstructed using keratinocytes and melanocytes of European origin seeded on the substrate BPER (Episkin). The test products are added to the culture medium immediately on seeding the cells and at all the changes of medium.
The pigmented reconstructed epidermis standard study model was published by:
Regnier M., Duval C., Galey J. B., Philippe M., Lagrange A., Tuloup R., Schmidt R., Cellular and Molecular Biology, 1999, 45, 7, 969-980: “Keratinocyte-melanocyte co-cultures and pigmented reconstructed human epidermis: models to study modulation of melanogenesis”.
The melanin was quantified by image analysis on histological sections after revelation with Fontana-Masson stain. Each stained epidermis is photographed over its entire length using a camera connected to a microscope.
The decrease in the amount of melanin is evaluated relative to the solvent (DMSO)

In order of rising “Depigmenting activity/DMSO (decrease in the amount of melanin relative to the solvent)” value:
1. CC(CCO)c1ccc(O)cc1O (stereo not drawn) [Compound 1, 4-(3-hydroxy-1-methylpropyl) benzene-1,3-diol]  −59%
2. CCCCc1ccc(O)cc1O [Lucinol, reference compound]  −41%

Test system: normal human melanocytes
Assay: Activity on constitutive melanogenesis: melanin production by normal human melanocytes in vitro
Type: cell-based
Settings: Melanocyte, 72 hours incubation, optical density, maximum concentration tested 200 μM, read-out: IC50 (μM): concentration at which a 50% decrease in melanin synthesis is achieved
Experimental: For the evaluations of the effect of preventing or decreasing pigmentation of the skin and/or of lightening of this skin, the examples are performed in the following manner.
The measurement of the depigmenting activity (reduction of melanin production) of compounds of formula (I) was performed by assaying normal human melanocytes in vitro as follows.
First of all, normal human melanocytes were cultured and dispensed into 384 wells. After 24 hours, the culture medium was replaced with a medium containing compounds of formula (I) to be evaluated. The cells were incubated for 72 hours before measurement of the final optical density, which measures the amount of melanin produced by the melanocytes. A dose effect was performed using a wide concentration range of the compounds evaluated. Thus, by making the concentrations and the melanin measurements correspond, it was possible to determine an IC50 in μM: concentration at which a 50% decrease in melanin synthesis is achieved.

In order of rising IC50:
1. CC(CCO)c1ccc(O)cc1O (stereo not drawn) [Compound 1, 4-(3-hydroxy-1-methylpropyl) benzene-1,3-diol]  3.61 µM
2. CC(=O)OCCC(C)c1ccc(OC(C)=O)cc1OC(C)=O (stereo not drawn) [Compound 2, 4-[4-(acetyloxy)but-2-yl]benzene-1,3-diyl diacetate]  4.08 µM
3. CC(=O)OCCC(C)c1ccc(O)cc1O (stereo not drawn) [Compound 3, 3-(2,4-dihydroxyphenyl) butyl acetate]  4.96 µM
4. OCCCc1ccc(O)cc1O [compound (A), reference compound]  23.4 µM
